{
  "source": "patent US20060079566A1",
  "about": "“PDK-1/Akt signaling inhibitors” (priority 2003, published 2006)",
  "key": {"recombinant PDK-1": {"molecular_target": "T1, recombinant PDK-1 (Homo sapiens, UniProt O15530)", "T1 construct": "purchased Upstate (Lake Placid, N.Y.)", "T1 sequence (O15530 1-556)": "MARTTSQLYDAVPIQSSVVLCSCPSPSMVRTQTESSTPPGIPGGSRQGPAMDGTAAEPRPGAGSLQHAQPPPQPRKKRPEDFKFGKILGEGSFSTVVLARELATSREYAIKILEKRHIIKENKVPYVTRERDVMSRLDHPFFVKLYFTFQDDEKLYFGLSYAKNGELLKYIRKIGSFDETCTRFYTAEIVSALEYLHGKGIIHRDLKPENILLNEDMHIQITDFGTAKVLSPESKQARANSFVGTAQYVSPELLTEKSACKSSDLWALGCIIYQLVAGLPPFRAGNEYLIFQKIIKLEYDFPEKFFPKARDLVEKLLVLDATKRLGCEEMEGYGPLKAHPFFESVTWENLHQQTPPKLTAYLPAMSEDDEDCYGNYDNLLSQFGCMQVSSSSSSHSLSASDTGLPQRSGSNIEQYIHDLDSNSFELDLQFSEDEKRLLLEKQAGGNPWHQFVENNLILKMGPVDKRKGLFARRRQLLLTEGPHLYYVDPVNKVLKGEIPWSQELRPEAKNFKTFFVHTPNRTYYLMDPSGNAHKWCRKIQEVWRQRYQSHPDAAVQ", "assay": "PDK-1 kinase activity (Upstate kit, SGK-coupled, cell-free)", "format": "biochemical", "experimental": "PDK-1 kinase activity This in vitro assay was performed using a PDK-1 kinase assay kit (Upstate, Lake Placid, N.Y.) according to the vendor's instructions. This cell-free assay is based on the ability of recombinant PDK-1, in the presence of DMSO vehicle or the test agent, to activate its downstream kinase serum- and glucocorticoid-regulated kinase (SGK.) which, in turn, phosphorylates the Akt/SGK-specific peptide substrate RPRAATF with [γ-^32]-ATP. […] The reported values represent the means of two independent determinations."}, "immunoprecipitated Akt": {"system": "immunoprecipitated Akt", "assay": "Direct inhibition of immunoprecipitated Akt kinase activity", "format": "biochemical, human"}, "NCI-H522": {"system": "NCI-H522", "assay": "NCI DTP screen (SRB), Non-Small Cell Lung Cancer", "format": "cell-based, human", "protocol": "(§1) Screening of compounds 70 and 71 against several cancer cell lines The human tumor cell lines of the cancer screening panel are grown in RPMI 1640 medium containing 5% fetal bovine serum and 2 mM L-glutamine. For a typical screening experiment, cells are inoculated into 96 well microtiter plates in 100 μL at plating densities ranging from 5,000 to 40,000 cells/well depending on the doubling time of individual cell lines. After cell inoculation, the microtiter plates are incubated at 37° C., 5% CO2, 95% air and 100% relative humidity for 24 h prior to addition of experimental drugs. […]\n(§2) Following drug addition, the plates are incubated for an additional 48 h at 37° C., 5% CO2, 95% air, and 100% relative humidity. […] Bound stain is subsequently solubilized with 10 mM trizma base, and the absorbance is read on an automated plate reader at a wavelength of 515 nm. […] Using the seven absorbance measurements [time zero, (Tz), control growth, (C), and test growth in the presence of drug at the five concentration levels (Ti)], the percentage growth is calculated at each of the drug concentrations levels. Percentage growth inhibition is calculated as: [(Ti−Tz)/(C−Tz)]×100 for concentrations for which Ti>/=Tz [(Ti−Tz)/Tz]×100 for concentrations for which Ti<Tz\n(§3) Three dose response parameters are calculated for each experimental agent. […]"}, "HT29": {"system": "HT29", "assay": "NCI DTP screen (SRB), Colon Cancer", "format": "cell-based", "conditions": "Homo sapiens, HT-29", "experimental": "(§8) After 24 h, two plates of each cell line are fixed in situ with TCA, to represent a measurement of the cell population for each cell line at the time of drug addition (Tz). Experimental drugs are solubilized in dimethyl sulfoxide at 400-fold the desired final maximum test concentration and stored frozen prior to use. […]\n(§9) Following drug addition, the plates are incubated for an additional 48 h at 37° C., 5% CO2, 95% air, and 100% relative humidity. […] Bound stain is subsequently solubilized with 10 mM trizma base, and the absorbance is read on an automated plate reader at a wavelength of 515 nm. […] Using the seven absorbance measurements [time zero, (Tz), control growth, (C), and test growth in the presence of drug at the five concentration levels (Ti)], the percentage growth is calculated at each of the drug concentrations levels. Percentage growth inhibition is calculated as: [(Ti−Tz)/(C−Tz)]×100 for concentrations for which Ti>/=Tz [(Ti−Tz)/Tz]×100 for concentrations for which Ti<Tz […]"}, "SF-295": {"system": "SF-295", "assay": "NCI DTP screen (SRB), CNS Cancer", "format": "cell-based", "conditions": "Homo sapiens", "protocol": "(§4) Screening of compounds 70 and 71 against several cancer cell lines The human tumor cell lines of the cancer screening panel are grown in RPMI 1640 medium containing 5% fetal bovine serum and 2 mM L-glutamine. For a typical screening experiment, cells are inoculated into 96 well microtiter plates in 100 μL at plating densities ranging from 5,000 to 40,000 cells/well depending on the doubling time of individual cell lines. After cell inoculation, the microtiter plates are incubated at 37° C., 5% CO2, 95% air and 100% relative humidity for 24 h prior to addition of experimental drugs.\n(§5) After 24 h, two plates of each cell line are fixed in situ with TCA, to represent a measurement of the cell population for each cell line at the time of drug addition (Tz). Experimental drugs are solubilized in dimethyl sulfoxide at 400-fold the desired final maximum test concentration and stored frozen prior to use. At the time of drug addition, an aliquot of frozen concentrate is thawed and diluted to twice the desired final maximum test concentration with complete medium containing 50 μg/ml gentamicin. Additional four, 10-fold or ½ log serial dilutions are made to provide a total of five drug concentrations plus control. Aliquots of 100 μl of these different drug dilutions are added to the appropriate microtiter wells already containing 100 μl of medium, resulting in the required final drug concentrations.\n(§6) Following drug addition, the plates are incubated for an additional 48 h at 37° C., 5% CO2, 95% air, and 100% relative humidity. For adherent cells, the assay is terminated by the addition of cold TCA. Cells are fixed in situ by the gentle addition of 50 μl of cold 50% (w/v) TCA (final concentration, 10% TCA) and incubated for 60 minutes at 4° C. The supernatant is discarded, and the plates are washed five times with tap water and air dried. Sulforhodamine B (SRB) solution (100 μl) at 0.4% (w/v) in 1% acetic acid is added to each well, and plates are incubated for 10 minutes at room temperature. After staining, unbound dye is removed by washing five times with 1% acetic acid and the plates are air dried. Bound stain is subsequently solubilized with 10 mM trizma base, and the absorbance is read on an automated plate reader at a wavelength of 515 nm. For suspension cells, the methodology is the same except that the assay is terminated by fixing settled cells at the bottom of the wells by gently adding 50 μl of 80% TCA (final concentration, 16% TCA). Using the seven absorbance measurements [time zero, (Tz), control growth, (C), and test growth in the presence of drug at the five concentration levels (Ti)], the percentage growth is calculated at each of the drug concentrations levels. Percentage growth inhibition is calculated as: [(Ti−Tz)/(C−Tz)]×100 for concentrations for which Ti>/=Tz [(Ti−Tz)/Tz]×100 for concentrations for which Ti<Tz\n(§7) Three dose response parameters are calculated for each experimental agent. […] The drug concentration resulting in total growth inhibition (TGI) is calculated from Ti=Tz. […] Values are calculated for each of these three parameters if the level of activity is reached; however, if the effect is not reached or is exceeded, the value for that parameter is expressed as greater or less than the maximum or minimum concentration tested."}, "SNB-19": {"system": "SNB-19", "assay": "NCI DTP screen (SRB), CNS Cancer", "format": "cell-based", "conditions": "Homo sapiens", "protocol": "as §4, §5, §6, §7"}, "U251": {"system": "U251", "assay": "NCI DTP screen (SRB), CNS Cancer", "format": "cell-based, human", "conditions": "Homo sapiens, U-251", "protocol": "as §1, §2, §3"}, "MALNE-3M": {"system": "MALNE-3M", "assay": "NCI DTP screen (SRB), Melanoma", "format": "cell-based"}, "MCP7": {"system": "MCP7", "assay": "NCI DTP screen (SRB), Breast Cancer", "format": "cell-based, human", "conditions": "MCP7", "protocol": "as §4, §5, §6, §7"}, "HS 57BT": {"system": "HS 57BT", "assay": "NCI DTP screen (SRB), Breast Cancer", "format": "cell-based", "protocol": "as §4, §5, §6, §7"}, "MDA-MB-231/ATCC": {"system": "MDA-MB-231/ATCC", "assay": "NCI DTP screen (SRB), Breast Cancer", "format": "cell-based", "protocol": "as §4, §5, §6, §7"}, "MDA-MB-435": {"system": "MDA-MB-435", "assay": "NCI DTP screen (SRB), Breast Cancer", "format": "cell-based", "conditions": "Homo sapiens", "protocol": "as §4, §5, §6, §7"}, "NCI/ADR-RES": {"system": "NCI/ADR-RES", "assay": "NCI DTP screen (SRB), Breast Cancer", "format": "cell-based", "conditions": "Homo sapiens", "protocol": "as §4, §5, §6, §7"}, "T-47D": {"system": "T-47D", "assay": "NCI DTP screen (SRB), Breast Cancer", "format": "cell-based", "protocol": "as §4, §5, §6, §7"}, "BT-549": {"system": "BT-549", "assay": "NCI DTP screen (SRB), Breast Cancer", "format": "cell-based", "conditions": "Homo sapiens", "experimental": "as §8, §9"}, "[1]": {"conditions": "MALNE-3M, Log10 Concentration −5.0"}},
  "data": [
    {"smiles": "NCC(=O)Nc1ccc(-n2nc(C(F)(F)F)cc2-c2ccc3c(ccc4ccccc43)c2)cc1", "note": "[Compound 70, 2-Amino-N-{4-[5-(2-phenanthrenyl)-3-(trifluoromethyl)-1H-pyrazol-1-yl]-phenyl}-acetamide]", "values": [
      {"measurement": "IC50", "setting": "recombinant PDK-1; inhibiting recombinant PDK-1 kinase activity, read-out: IC50 PDK-1", "result": 5000, "unit": "nM"},
      {"measurement": "increase in PDK-1 inhibition potency over compound 59", "setting": "recombinant PDK-1; ratio of IC50 values", "result": "two-"},
      {"measurement": "direct inhibitory effect on immunoprecipitated Akt kinase activity", "setting": "immunoprecipitated Akt", "result": "no appreciable direct inhibition"},
      {"measurement": "GI50", "setting": "NCI-H522; Homo sapiens", "result": 1950, "unit": "nM"},
      {"measurement": "Mean Optical Densities", "setting": "NCI-H522; Log10 Concentration −4.0", "result": 0.486},
      {"measurement": "GI50", "setting": "HT29", "result": 858, "unit": "nM"},
      {"measurement": "GI50", "setting": "SF-295; SF-295", "result": 1280, "unit": "nM"},
      {"measurement": "CC50", "setting": "SF-295; SF-295, read-out: LC50", "result": "> 100000", "unit": "nM"},
      {"measurement": "GI50", "setting": "SNB-19", "result": 1180, "unit": "nM"},
      {"measurement": "GI50", "setting": "U251", "result": 775, "unit": "nM"},
      {"measurement": "CC50", "setting": "MALNE-3M; Homo sapiens, read-out: LC50", "result": 7730, "unit": "nM"},
      {"measurement": "Mean Optical Densities", "setting": "MALNE-3M; [1]", "result": 0.218},
      {"measurement": "Percent Growth", "setting": "MALNE-3M; [1]", "result": "−67", "unit": "%"},
      {"measurement": "Percent Growth", "setting": "MALNE-3M; MALNE-3M, Log10 Concentration −6.0", "result": 87, "unit": "%"},
      {"measurement": "GI50", "setting": "MCP7; Homo sapiens", "result": 718, "unit": "nM"},
      {"measurement": "Percent Growth", "setting": "MCP7; Log10 Concentration −5.0", "result": "−57", "unit": "%"},
      {"measurement": "Percent Growth", "setting": "MCP7; Log10 Concentration −6.0", "result": 43, "unit": "%"},
      {"measurement": "Percent Growth", "setting": "HS 57BT; HS 57BT, Log10 Concentration −5.0", "result": "−34", "unit": "%"},
      {"measurement": "Percent Growth", "setting": "HS 57BT; HS 57BT, Log10 Concentration −6.0", "result": 88, "unit": "%"},
      {"measurement": "CC50", "setting": "HS 57BT; Homo sapiens, read-out: LC50", "result": "> 100000", "unit": "nM"},
      {"measurement": "GI50", "setting": "HS 57BT; Homo sapiens, HS 57BT", "result": 2050, "unit": "nM"},
      {"measurement": "CC50", "setting": "MDA-MB-231/ATCC; Homo sapiens, MDA-MB-231, read-out: LC50", "result": 6670, "unit": "nM"},
      {"measurement": "GI50", "setting": "MDA-MB-231/ATCC; Homo sapiens, MDA-MB-231/ATCC", "result": 1150, "unit": "nM"},
      {"measurement": "Mean Optical Densities", "setting": "MDA-MB-231/ATCC; MDA-MB-231/ATCC, Log10 Concentration −8.0", "result": 1.988},
      {"measurement": "GI50", "setting": "MDA-MB-435", "result": 1350, "unit": "nM"},
      {"measurement": "GI50", "setting": "NCI/ADR-RES", "result": 954, "unit": "nM"},
      {"measurement": "CC50", "setting": "NCI/ADR-RES; read-out: LC50", "result": 8280, "unit": "nM"},
      {"measurement": "GI50", "setting": "T-47D; Homo sapiens, T47D", "result": 1820, "unit": "nM"},
      {"measurement": "Percent Growth", "setting": "T-47D; Log10 Concentration −4.0", "result": "−64", "unit": "%"},
      {"measurement": "GI50", "setting": "BT-549; BT-549", "result": 1250, "unit": "nM"},
      {"measurement": "CC50", "setting": "BT-549; BT-549, read-out: LC50", "result": 6980, "unit": "nM"}
    ]}
  ]
}
